We go through 2 molecules from US9422267B2, “Fused pyrimidine compounds and use thereof” (Medivation Technologies, Inc., priority 2012, dated 2016).

A value given as a limit tells only on which side of the number the result lay.

Data set [1] deals with human breast cancer MCF7 cells. Nature of the data set: Efficacy in xenograft model of human breast cancer. The data set is classed as in vivo, mice. As to the method: To evaluate the efficacy of tumor growth inhibition, the compound 8b was studied using human cancer mouse models. The models are prepared by subcutaneously or orthotopically implanting mice with human cancer cells. When the tumor size of the mice develops (e.g., reaches 100 mm^3), the mice are divided into groups for treatment with compound 8b (where different groups receiving the compound 8b may be administered different amounts of the compound 8b) or are provided no compound as a control. The mice are treated (e.g., orally administered a compound of the invention) for a period of time. During the course of the study, the tumor is measured and the weight of the mice is determined. After the treatment period, the mice are sacrificed shortly (e.g. 1 or 2 hours) after the final dose. Blood and tissue are collected for biochemical analysis.
To evaluate the efficacy of tumor growth inhibition, compound 8b was studied using a human breast cancer mouse model. […]
The appropriate amount of compound 8b was sonicated in a PEG-400 solution (80% w/v in case of Example B6B; and 50% w/v in case of Example B6C) to completely dissolve the compound, followed by dropwise addition of the required amount of H2O. […] During the course of the study, the tumor was measured and the weight of the mice was determined. […]
(In general: In xenograft studies the graft and the host belong to different species.)

A further data set has as its target BTK (Homo sapiens, UniProt Q06187). Put plainly: Caliper kinase profiling: BTK. In kind it is biochemical. As to conditions: read-out: Average % Inh @ 1 μM.
A further data set has as its target DCAMKL2 (Homo sapiens, UniProt Q8N568). Put plainly: Caliper kinase profiling: DCAMKL2. The data set is classed as biochemical. As to conditions: DCAMKL2, 1 μM; read-out: Average % Inh @ 1 μM.
For the next data set, the target named is EPHA5 (Homo sapiens, UniProt P54756). Nature of the data set: Caliper kinase profiling: EPHA5. In kind it is biochemical. As to conditions: EPHA5, 1 μM; read-out: Average % Inh @ 1 μM.
The target of a further data set is EPHB2 (Homo sapiens, UniProt P29323). Put plainly: Caliper kinase profiling: EPHB2. The data set is classed as biochemical. As to conditions: EPHB2, 1 μM; read-out: Average % Inh @ 1 μM.
In the next data set the target is FES (Homo sapiens, UniProt P07332). Nature of the data set: Caliper kinase profiling: FES. In kind it is biochemical. As to conditions: read-out: Average % Inh @ 1 μM.
Another data set addresses Flt3(D835Y) (Homo sapiens, UniProt P36888, D835Y). Nature of the data set: Caliper kinase profiling: Flt3(D835Y). In kind it is biochemical. As to conditions: read-out: Average % Inh @ 1 μM.
A further data set concerns the target LCK (Homo sapiens, UniProt P06239). Nature of the data set: Caliper kinase profiling: LCK. The data set is classed as biochemical.
Another data set concerns the target T1, MST2 (Homo sapiens, UniProt Q13188).
T1 sequence (Q13188 1-491): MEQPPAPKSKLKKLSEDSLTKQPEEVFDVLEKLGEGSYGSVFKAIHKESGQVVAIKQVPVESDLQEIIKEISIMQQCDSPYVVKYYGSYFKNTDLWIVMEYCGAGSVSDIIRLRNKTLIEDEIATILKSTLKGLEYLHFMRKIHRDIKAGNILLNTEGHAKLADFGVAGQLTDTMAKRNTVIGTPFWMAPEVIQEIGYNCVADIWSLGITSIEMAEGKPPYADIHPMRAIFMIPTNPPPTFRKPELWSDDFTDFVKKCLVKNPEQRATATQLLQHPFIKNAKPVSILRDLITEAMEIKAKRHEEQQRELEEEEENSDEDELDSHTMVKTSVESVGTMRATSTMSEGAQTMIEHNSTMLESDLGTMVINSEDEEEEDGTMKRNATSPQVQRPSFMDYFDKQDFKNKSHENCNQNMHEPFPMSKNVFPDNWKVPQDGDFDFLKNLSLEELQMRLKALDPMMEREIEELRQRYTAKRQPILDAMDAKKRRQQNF
Nature of the data set: Caliper kinase profiling: MST2. The data set is classed as biochemical.

Another data set concerns the target T2, NuaK1 (Homo sapiens, UniProt O60285).
T2 sequence (O60285 1-661): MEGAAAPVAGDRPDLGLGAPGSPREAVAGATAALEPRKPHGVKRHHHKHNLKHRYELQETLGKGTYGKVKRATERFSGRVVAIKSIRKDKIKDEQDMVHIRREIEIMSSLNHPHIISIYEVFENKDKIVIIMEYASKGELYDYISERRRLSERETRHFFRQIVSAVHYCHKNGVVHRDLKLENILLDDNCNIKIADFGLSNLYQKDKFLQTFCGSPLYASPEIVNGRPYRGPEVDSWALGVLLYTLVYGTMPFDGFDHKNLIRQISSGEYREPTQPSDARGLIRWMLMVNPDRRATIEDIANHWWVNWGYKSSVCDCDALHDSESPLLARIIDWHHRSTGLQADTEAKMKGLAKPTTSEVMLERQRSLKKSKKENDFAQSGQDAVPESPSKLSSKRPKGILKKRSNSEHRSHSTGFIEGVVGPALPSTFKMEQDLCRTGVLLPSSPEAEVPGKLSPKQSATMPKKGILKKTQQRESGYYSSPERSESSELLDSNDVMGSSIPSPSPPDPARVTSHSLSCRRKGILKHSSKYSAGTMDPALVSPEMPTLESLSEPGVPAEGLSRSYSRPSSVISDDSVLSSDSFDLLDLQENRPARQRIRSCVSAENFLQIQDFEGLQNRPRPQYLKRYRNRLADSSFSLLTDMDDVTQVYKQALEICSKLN
Nature of the data set: Caliper kinase profiling: NuaK1. The data set is classed as biochemical.

The target of a further data set is SRC (Homo sapiens, UniProt P12931). Nature of the data set: Caliper kinase profiling: SRC. In kind it is biochemical.
The mark [2] stands for this setting: 10 nM, read-out: Average % Inh @ 10 nM.
Where [3] appears, read: 100 nM, read-out: Average % Inh @ 100 nM.
Where [4] appears, read: 1 μM, read-out: Average % Inh @ 1 μM.

LCK, sequence (P06239 whole entry): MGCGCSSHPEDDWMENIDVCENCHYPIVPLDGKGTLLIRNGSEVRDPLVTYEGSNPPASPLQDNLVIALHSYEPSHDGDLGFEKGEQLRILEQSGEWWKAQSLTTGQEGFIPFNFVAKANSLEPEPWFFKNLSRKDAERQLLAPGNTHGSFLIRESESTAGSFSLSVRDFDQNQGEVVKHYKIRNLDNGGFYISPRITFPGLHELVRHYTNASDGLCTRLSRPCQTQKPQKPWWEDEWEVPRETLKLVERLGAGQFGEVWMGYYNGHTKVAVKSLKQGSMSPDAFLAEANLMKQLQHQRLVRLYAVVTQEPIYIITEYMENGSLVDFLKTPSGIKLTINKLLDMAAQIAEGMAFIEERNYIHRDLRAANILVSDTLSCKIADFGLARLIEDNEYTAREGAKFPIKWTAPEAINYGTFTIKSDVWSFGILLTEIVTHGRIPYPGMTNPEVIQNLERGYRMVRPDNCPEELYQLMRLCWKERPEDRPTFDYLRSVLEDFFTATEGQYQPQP
SRC, sequence (P12931 whole entry): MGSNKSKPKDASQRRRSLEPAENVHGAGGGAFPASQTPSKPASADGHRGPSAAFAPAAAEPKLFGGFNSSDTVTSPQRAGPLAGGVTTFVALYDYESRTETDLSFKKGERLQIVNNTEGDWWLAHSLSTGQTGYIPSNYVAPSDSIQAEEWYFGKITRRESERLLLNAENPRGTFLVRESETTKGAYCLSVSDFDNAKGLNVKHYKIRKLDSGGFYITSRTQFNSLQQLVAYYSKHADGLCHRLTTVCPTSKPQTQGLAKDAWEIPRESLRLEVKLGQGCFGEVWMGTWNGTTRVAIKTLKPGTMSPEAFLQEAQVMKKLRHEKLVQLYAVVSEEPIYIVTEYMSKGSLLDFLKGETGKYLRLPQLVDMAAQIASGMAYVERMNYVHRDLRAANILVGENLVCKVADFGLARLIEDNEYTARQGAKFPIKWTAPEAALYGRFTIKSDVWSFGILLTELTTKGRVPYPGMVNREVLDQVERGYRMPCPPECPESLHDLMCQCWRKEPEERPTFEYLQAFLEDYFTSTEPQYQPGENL
EPHB2, sequence (P29323 19-1055): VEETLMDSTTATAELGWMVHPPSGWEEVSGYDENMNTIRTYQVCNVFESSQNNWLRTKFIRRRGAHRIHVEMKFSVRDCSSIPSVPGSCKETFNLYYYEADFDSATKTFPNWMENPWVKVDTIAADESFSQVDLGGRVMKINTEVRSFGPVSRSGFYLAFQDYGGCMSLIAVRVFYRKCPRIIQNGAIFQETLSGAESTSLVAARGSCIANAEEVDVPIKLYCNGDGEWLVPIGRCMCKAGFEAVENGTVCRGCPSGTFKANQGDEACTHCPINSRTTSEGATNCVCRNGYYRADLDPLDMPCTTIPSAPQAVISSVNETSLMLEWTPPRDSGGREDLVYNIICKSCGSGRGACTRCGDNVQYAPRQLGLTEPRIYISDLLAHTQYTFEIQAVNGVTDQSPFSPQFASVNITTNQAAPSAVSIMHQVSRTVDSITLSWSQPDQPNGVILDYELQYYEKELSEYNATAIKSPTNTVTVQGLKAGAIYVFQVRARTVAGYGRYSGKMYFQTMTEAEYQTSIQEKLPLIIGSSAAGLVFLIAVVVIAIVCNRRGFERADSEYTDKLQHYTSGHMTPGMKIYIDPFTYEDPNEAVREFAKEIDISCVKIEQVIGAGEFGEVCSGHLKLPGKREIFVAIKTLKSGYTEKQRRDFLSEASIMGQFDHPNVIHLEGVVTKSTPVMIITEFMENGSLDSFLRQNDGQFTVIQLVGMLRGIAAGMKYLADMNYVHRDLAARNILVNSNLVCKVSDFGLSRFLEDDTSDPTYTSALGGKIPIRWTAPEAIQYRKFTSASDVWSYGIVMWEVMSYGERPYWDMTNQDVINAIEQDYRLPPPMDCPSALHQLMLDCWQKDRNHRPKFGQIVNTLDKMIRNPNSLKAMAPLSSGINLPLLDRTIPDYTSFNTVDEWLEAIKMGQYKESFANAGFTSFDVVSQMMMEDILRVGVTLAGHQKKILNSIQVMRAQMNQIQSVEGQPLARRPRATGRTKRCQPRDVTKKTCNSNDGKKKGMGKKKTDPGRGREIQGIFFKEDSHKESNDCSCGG
DCAMKL2, sequence (Q8N568 whole entry): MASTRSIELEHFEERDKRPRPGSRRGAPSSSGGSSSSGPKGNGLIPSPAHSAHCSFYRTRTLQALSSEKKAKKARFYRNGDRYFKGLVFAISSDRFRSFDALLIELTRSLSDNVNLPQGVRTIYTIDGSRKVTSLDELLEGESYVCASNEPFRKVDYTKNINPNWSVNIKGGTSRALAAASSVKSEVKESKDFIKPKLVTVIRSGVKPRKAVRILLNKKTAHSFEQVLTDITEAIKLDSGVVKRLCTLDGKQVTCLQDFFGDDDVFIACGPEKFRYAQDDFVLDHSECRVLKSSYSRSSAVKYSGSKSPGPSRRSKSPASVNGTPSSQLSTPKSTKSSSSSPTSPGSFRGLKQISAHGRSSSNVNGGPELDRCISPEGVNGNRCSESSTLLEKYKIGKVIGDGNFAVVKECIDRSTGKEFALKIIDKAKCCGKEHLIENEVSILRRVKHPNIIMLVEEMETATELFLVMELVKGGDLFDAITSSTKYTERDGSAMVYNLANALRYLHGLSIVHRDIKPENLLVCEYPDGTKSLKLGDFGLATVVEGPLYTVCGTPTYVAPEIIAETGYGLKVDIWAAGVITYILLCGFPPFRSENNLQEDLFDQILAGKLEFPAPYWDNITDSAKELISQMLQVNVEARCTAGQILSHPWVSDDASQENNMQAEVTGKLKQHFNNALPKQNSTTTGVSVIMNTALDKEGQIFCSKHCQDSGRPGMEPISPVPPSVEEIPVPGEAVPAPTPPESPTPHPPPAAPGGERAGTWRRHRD
FES, sequence (P07332 whole entry): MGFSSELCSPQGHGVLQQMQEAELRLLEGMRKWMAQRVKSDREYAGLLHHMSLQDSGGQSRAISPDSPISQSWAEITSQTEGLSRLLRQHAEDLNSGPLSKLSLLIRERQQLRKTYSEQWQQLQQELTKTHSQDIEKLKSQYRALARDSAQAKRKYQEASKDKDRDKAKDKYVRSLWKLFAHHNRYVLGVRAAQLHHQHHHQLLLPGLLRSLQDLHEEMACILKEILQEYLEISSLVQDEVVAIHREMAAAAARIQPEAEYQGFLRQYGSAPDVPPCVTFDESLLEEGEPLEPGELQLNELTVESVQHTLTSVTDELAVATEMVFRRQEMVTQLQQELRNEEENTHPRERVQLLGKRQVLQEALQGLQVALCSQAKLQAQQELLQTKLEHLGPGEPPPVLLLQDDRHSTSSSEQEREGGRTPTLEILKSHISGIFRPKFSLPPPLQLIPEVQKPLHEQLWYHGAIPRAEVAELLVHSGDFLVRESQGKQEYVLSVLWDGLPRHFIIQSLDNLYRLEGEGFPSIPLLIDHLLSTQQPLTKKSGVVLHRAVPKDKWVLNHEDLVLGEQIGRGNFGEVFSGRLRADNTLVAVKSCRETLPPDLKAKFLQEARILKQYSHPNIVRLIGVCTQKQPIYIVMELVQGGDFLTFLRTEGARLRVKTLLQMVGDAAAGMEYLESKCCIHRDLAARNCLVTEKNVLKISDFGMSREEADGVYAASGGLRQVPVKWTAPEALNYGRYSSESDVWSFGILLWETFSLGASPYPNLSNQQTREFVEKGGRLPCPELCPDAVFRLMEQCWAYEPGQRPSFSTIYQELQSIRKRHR
EPHA5, sequence (P54756 25-1037): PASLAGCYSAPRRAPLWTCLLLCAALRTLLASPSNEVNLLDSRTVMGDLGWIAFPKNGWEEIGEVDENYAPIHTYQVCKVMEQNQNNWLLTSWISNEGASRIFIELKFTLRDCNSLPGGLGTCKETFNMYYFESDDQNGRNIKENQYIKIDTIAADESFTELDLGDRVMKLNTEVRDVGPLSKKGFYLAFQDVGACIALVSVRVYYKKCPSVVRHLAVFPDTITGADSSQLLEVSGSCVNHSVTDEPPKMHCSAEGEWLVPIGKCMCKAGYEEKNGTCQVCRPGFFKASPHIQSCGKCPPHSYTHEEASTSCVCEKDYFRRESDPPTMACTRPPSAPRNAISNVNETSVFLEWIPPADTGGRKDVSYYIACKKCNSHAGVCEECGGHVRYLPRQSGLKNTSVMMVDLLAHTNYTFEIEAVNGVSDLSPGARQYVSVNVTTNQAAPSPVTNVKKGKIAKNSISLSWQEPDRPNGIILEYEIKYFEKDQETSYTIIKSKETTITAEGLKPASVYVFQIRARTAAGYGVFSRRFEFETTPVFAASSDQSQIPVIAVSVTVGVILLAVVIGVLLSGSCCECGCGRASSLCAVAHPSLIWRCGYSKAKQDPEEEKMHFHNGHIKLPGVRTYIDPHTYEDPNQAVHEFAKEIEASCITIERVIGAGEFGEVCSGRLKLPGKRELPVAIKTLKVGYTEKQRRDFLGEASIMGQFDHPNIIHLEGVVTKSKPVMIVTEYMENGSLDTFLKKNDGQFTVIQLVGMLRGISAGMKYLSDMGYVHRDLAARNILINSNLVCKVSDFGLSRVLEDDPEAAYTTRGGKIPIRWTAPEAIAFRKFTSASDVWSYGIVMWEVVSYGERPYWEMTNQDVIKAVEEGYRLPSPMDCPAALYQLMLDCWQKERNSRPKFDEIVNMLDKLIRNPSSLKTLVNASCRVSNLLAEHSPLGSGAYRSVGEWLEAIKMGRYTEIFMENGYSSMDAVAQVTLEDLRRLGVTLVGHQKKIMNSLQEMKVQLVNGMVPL

As to `CC(C)c1cc(Nc2nc(N3CCCC3C(=O)Nc3ccc(F)nc3)nc3c2CCC3)n[nH]1` (single isomer, unassigned) [Compound 8b], the tumor burden result in [1] (MCF7 breast cancer model, nude mice, 10 and 15 mg/kg/po, various schedules (FIG. 2)) was “dose-dependently and significantly reduced tumor burden”. Further, the “body weights of the mice” value in data set [1] (MCF7 xenograft model (FIG. 4)) is “dose-dependently reduced body weights”.
`O=C(Nc1ccc(F)nc1)C1CCCN1c1nc2c(c(Nc3cc(C4CC4)[nH]n3)n1)CCC2` (single isomer, unassigned) [Compound 2b, 1-(4-(5-cyclopropyl-1H-pyrazol-3-ylamino)-6,7-dihydro-5H-cyclopenta[d]pyrimidin-2-yl)-N-(6-fluoropyridin-3-yl)pyrrolidine-2-carboxamide]: the inhibition at 1 µM was 40 to 59% at BTK; over 60% at DCAMKL2; over 60% at EPHA5; over 60% at EPHB2; 40 to 59% on FES; over 60% at Flt3(D835Y). The inhibition at 1 µM at LCK (setting [4]) is over 60%; at MST2 (MST2, 1 μM, read-out: Average % Inh @ 1 μM), over 60%; at NuaK1 (NuaK1, 1 μM, read-out: Average % Inh @ 1 μM) it was over 60%; at SRC (setting [4]) it was over 60%. Besides, the inhibition at 0.01 µM on LCK (setting [2]) is under 39%; on MST2 (MST2, 10 nM, read-out: Average % Inh @ 10 nM) it was under 39%; on NuaK1 (NuaK1, 10 nM, read-out: Average % Inh @ 10 nM) it was under 39%; on SRC (setting [2]) it was under 39%. The inhibition at 0.1 µM is under 39% on LCK (setting [3]); under 39% on MST2 (MST2, 100 nM, read-out: Average % Inh @ 100 nM); 40 to 59% on NuaK1 (NuaK1, 100 nM, read-out: Average % Inh @ 100 nM); over 60% on SRC (setting [3]).
